This is an account of results in article PMC10044120, “Potent and selective covalent inhibition of the papain-like protease from SARS-CoV-2” (Nature Communications, 2023).

The target in data set [1] is T1, PLpro from SARS-CoV-2 (Severe acute respiratory syndrome coronavirus 2, UniProt P0DTD1). Put plainly: biochemical. In kind it is biochemical. Conditions: for remaining activity at 100 µM: inhibitor 100.00 uM; for remaining activity at […]: read-out: % Plpro activity; for IC50: after 30-min incubation, purified PLpro, Z-RLRGG-AMC substrate.
The subject of data set [2] is SARS-CoV-2 isolate USA-WA1/2020. To be noted: for inhibition: read-out: cytopathic effect, % cell viability, duplicate wells. On the technique in general: Cytopathic effects are the visible damage that an infection or toxin causes in cultured cells.
In another data set the test system is Vero E6 cells. Conditions: African green monkey, 48 h.
Another data set can be described thus: in vitro. To be noted: African green monkey, cytotoxicity, %cell viability.
Data set [3] has as its system SARS-CoV-2 isolate USA-WA1/2020. The data set is described as follows: microbe, parasite or virus in culture. Conditions: for inhibition at 2.08 µM: Severe acute respiratory syndrome coronavirus 2, Vero C1008, read-out: cytopathic effect, % cell viability, [inhibitor] 2.08 uM.
Data set [4] concerns the target T1, PLpro from SARS-CoV-2. Put plainly: biochemical. Conditions: fluorogenic peptide assay, varied preincubation time. The class given is biochemical.

The structures appear in SMILES notation. “And” between values parts separate entries of the source, which are not always exact repeats. Equal values may be shown once. Read-outs that look alike come from different tables or passages of the source.

Usually viability stands for a read-out of living cells in per cent, often relative to untreated cells. In the case of `COC(=O)CCc1ccccc1C(=O)N[C@H](C)c1cccc2ccccc12` [Compound 3, methyl (R)−3-(2-((1-(naphthalen-1-yl)ethyl)carbamoyl)phenyl)propanoate], at PLpro from SARS-CoV-2 [1] (0.5 h), the remaining activity at 100 µM was 78.6%; the remaining activity at […] was 119% and 108%. Further, the inhibition in data set [2] ([inhibitor] 2.08 uM, 2.08 µM) turned out to be 8.63%. The “cytotoxicity, %cell viability” value in the data set on Vero E6 cells (2.08 µM) was found to be 99.61%. Also, in the data set on Vero E6 cells (8.33 µM), the “cytotoxicity, %cell viability” value stood at 97.36%. The “cytotoxicity, %cell viability” value in the data set on Vero E6 cells (16.65 µM) stood at 90.64%. Also, in the data set “in vitro”, the viability at 48 h, 2.08 µM turned out to be 105%; the viability at 48 h, 8.33 µM is 93.2%; the viability at 48 h, 16.65 µM worked out at 92%. For the same compound, the inhibition at 2.08 µM in data set [3] (duplicate wells) came out at 7.81%.
As usually defined, the IC50 is the concentration that inhibits the measured activity by half. With `C[C@@H](NC(=O)c1ccccc1CCC(=O)NN)c1cccc2ccccc12` [Compound 5, (R)-2-(3-hydrazineyl-3-oxopropyl)-N-(1-(naphthalen-1-yl)ethyl)benzamide], the remaining activity at 19.5 µM at PLpro from SARS-CoV-2 [1] (0.5 h, inhibitor 19.50 uM) came out at 46.4%. For the same compound, the remaining activity at 100 µM on PLpro from SARS-CoV-2 [1] (0.5 h) was 13.9%. Besides, at PLpro from SARS-CoV-2 [1] (0.5 h), the remaining activity at […] is 103% and 109%. The IC50 against PLpro from SARS-CoV-2 [1] worked out at 24 µM. In addition, the “Time dep. (time-dependent inhibition)” value on PLpro from SARS-CoV-2 [4] is listed as “No”. Also, the inhibition in data set [2] ([inhibitor] 2.08 uM, 2.08 µM) came out at 7.12%; in data set [2] ([inhibitor] 8.33 uM, 8.33 µM), 8.31%; in data set [2] ([inhibitor] 16.65 uM, 16.65 µM) it was 2.6%. In addition, the “cytotoxicity, %cell viability” value in the data set with Vero E6 cells (2.08 µM) is on record as 100.12%; in the data set on Vero E6 cells (8.33 µM), 100.79%; in the data set with Vero E6 cells (16.65 µM), 89.16%. For the same compound, in “in vitro”, the viability at 48 h, 2.08 µM was found to be 101%. Besides, the viability at 48 h, 8.33 µM in “in vitro” is 97%. Also, in the data set “in vitro”, the viability at 48 h, 16.65 µM worked out at 94.8%. Moreover, the inhibition at […] in data set [3] (Severe acute respiratory syndrome coronavirus 2, Vero C1008, read-out: cytopathic effect, % cell viability) is 11.2%. Besides, in data set [3] (duplicate wells), the inhibition at 2.08 µM came to 11.2%. Further, the inhibition at 8.33 µM in data set [3] (Severe acute respiratory syndrome coronavirus 2, Vero C1008, read-out: cytopathic effect, % cell viability, [inhibitor] 8.33 uM, duplicate wells) amounted to 8.24%. Also, the inhibition at 16.65 µM in data set [3] (Severe acute respiratory syndrome coronavirus 2, Vero C1008, read-out: cytopathic effect, % cell viability, [inhibitor] 16.65 uM, duplicate wells) was 2.95%.
As to `C[C@@H](NC(=O)c1ccccc1CCC(=O)NNC(=O)C(C#N)=CC1CC1)c1cccc2ccccc12` [Compound 13, (R)-2-(3-(2-(2-cyano-3-cyclopropylacryloyl)hydrazineyl)-3-oxopropyl)-N-(1-(naphthalen-1-yl)ethyl)benzamide], the remaining activity at 0.06 µM on PLpro from SARS-CoV-2 [1] (0.5 h, inhibitor 0.06 uM) came to 101%. The remaining activity at 0.2 µM on PLpro from SARS-CoV-2 [1] (0.5 h, inhibitor 0.20 uM) is 107%. For the same compound, on PLpro from SARS-CoV-2 [1] (0.5 h, inhibitor 6.34 uM), the remaining activity at 6.34 µM stood at 109%. Further, the remaining activity at 20 µM on PLpro from SARS-CoV-2 [1] (0.5 h, inhibitor 20.00 uM) turned out to be 90.5%. In addition, on PLpro from SARS-CoV-2 [1], the IC50 is > 200 µM. Besides, the “Time dep. (time-dependent inhibition)” value at PLpro from SARS-CoV-2 [4] is “not and No”. In data set [2] (SARS-CoV-2-infected Vero E6 cells, 48 h), the “EC50 (cytopathic effect)” value is given as “No CPE”. The “cytotoxicity, %cell viability” value with Vero E6 cells (2.08 µM) is 72.90%. In addition, the “cytotoxicity, %cell viability” value in the data set with Vero E6 cells (16.67 µM) was 0.71%. Further, in “in vitro”, the viability at 48 h, 2.08 µM is 83.5% and the viability at 48 h, 16.67 µM amounted to 0.88%.
A word on the EC50: it is the concentration at which the effect is half-maximal. In the case of `CCC(CC)COC(=O)[C@H](C)N[P@](=O)(OC[C@H]1O[C@@](C#N)(c2ccc3c(N)ncnn23)[C@H](O)[C@@H]1O)Oc1ccccc1` [remdesivir, reference compound], the “% cell viability, cytopathic effect” value was determined as 97.274% in data set [2] (5.00 uM) and 97.073% in data set [2] (10.00 uM). Besides, the inhibition worked out at 97.3% in data set [2] ([inhibitor] 5.00 uM, 5 µM) and 97.1% in data set [2] ([inhibitor] 10.00 uM, 10 µM). Also, the 50% effective concentration (EC50) in data set [3] (Severe acute respiratory syndrome coronavirus 2, Vero C1008, 48 h, read-out: EC50 (cytopathic effect)) came to 0.74 µM. For the same compound, the viability at 5 µM in data set [3] (Severe acute respiratory syndrome coronavirus 2, Vero C1008, read-out: % cell viability, cytopathic effect, 5.00 uM) was found to be 102%. In data set [3] (Severe acute respiratory syndrome coronavirus 2, Vero C1008, read-out: % cell viability, cytopathic effect, 10.00 uM), the viability at 10 µM turned out to be 101%. In data set [3] (Severe acute respiratory syndrome coronavirus 2, Vero C1008, read-out: cytopathic effect, % cell viability, [inhibitor] 5.00 uM, duplicate wells), the inhibition at 5 µM amounted to 102%. Also, the inhibition at 10 µM in data set [3] (Severe acute respiratory syndrome coronavirus 2, Vero C1008, read-out: cytopathic effect, % cell viability, [inhibitor] 10.00 uM, duplicate wells) was determined as 101%.
